Laboratory results: the OligoGym collection
“And” between values parts separate entries of the source, which are not always exact repeats. Equal entries are not always repeated. After the bases stand the sugars from the 5' end (letter, count) and the backbone: PS all phosphorothioate, else s phosphorothioate and o phosphodiester by linkage. Methylation of C is not given here. e = 2'-O-(2-methoxyethyl) (MOE); k = constrained ethyl (cEt); d = 2'-deoxy (DNA)

Biological target: APOL1
Conditions: ASO

Sequence | target mRNA inhibition (A431, 0.04 µM) | target mRNA inhibition (A431, 1 µM) | target mRNA inhibition (A431, 2 µM) | target mRNA inhibition (A431, 0.0156 µM) | target mRNA inhibition (A431, 0.0625 µM) | target mRNA inhibition (A431, 0.25 µM)
CAGTTTTGTAAGTGCA (sugars kkddddkdkdkddddd, PS) | 41% | 95% | 95% | – | – | –
TTGTAAGTGCAACCAA (sugars kkkddddkekekdddd, PS) | – | – | 35% | – | – | –
CGCAATGCTGACTTGG (sugars kkddddekekeddddd, PS) | – | 93% | 94% | 22% | 48% | 80%
AGATGGGTACTTCTGT (sugars k4 d9 k3, PS) | – | 93% | – | – | 85% | 88%
ACACATCATTGGGTTA (sugars kekddddeekkddddd, PS) | – | – | 87% | – | – | –
TGTTATATTTGATCCT (sugars kkdddddkekeddddd, PS) | 50% | 92% | 92% | 33% | 59% | 81%
GTATTTCTTGATGTGG (sugars kkdddddkekeddddd, PS) | 64% | 98% and 99% | 98% | 59% | 89% | 97%
AGCTTTAAACTCAGGT (sugars kdddddkekekddddd, PS) | – | 92% | 95% | 14% | 46% | 80%
GTAGAATGAGCAGGTC (sugars k4 d9 k3, PS) | – | 99% | – | – | 84% | 97%
TCTATTAGAGGGCTAG (sugars kkddddkekekddddd, PS) | – | – | 52% | – | – | –
ATTCTATTGGGCCTCA (sugars k4 d9 k3, PS) | – | 86% | – | – | 28% | 62%
GGTTCAAAAGCAGCAT (sugars kkkddddkekeddddd, PS) | – | – | 70% | – | – | –
CTAATTTTCTGACTGT (sugars kkddddkdkdkddddd, PS) | – | – | 84% | – | – | –
GGAATTATGGAATTGC (sugars kkkddddkdkdkdddd, PS) | – | – | 76% | – | – | –
AATTCTATTAGAGGGC (sugars kkddddkekekddddd, PS) | – | – | 56% | – | – | –
ACTTTTTCACCATAGC (sugars k4 d9 k3, PS) | – | 93% | – | – | 53% | 82%
CTTTAAACTCAGGTGA (sugars kkddddkdkdkddddd, PS) | – | – | 89% | – | – | –

Sequence | target mRNA inhibition (A431, 0.04 µM) | target mRNA inhibition (A431, 1 µM) | target mRNA inhibition (A431, 2 µM) | target mRNA inhibition (A431, 0.0156 µM) | target mRNA inhibition (A431, 0.0625 µM) | target mRNA inhibition (A431, 0.25 µM)
ATTCAGAATTTCCACT (sugars k2 d4 e4 k2 d4, PS) | – | – | 64% | – | – | –
ACCCTCTTTATCCCCC (sugars k4 d9 k3, PS) | – | 92% and 81% | – | – | 53% and 39% | 82% and 65%
AGCTTTAAACTCAGGT (sugars kkkddddkdkdkdddd, PS) | – | – | 74% | – | – | –
GTGAGTATTGTTTTTG (sugars kkddddekekeddddd, PS) | – | – | 93% | – | – | –
GTTATATTTGATCCTC (sugars kdddddkekekddddd, PS) | – | 92% | 95% | 26% | 56% | 78%
AGCTTTAAACTCAGGT (sugars k3 d4 k3 e1 d5, PS) | – | – | 82% | – | – | –
TGTTATATTTGATCCT (sugars kkkddddkdkdkdddd, PS) | – | – | 66% | – | – | –
TTCAGAATTTCCACTA (sugars kdddddkekekddddd, PS) | – | – | 87% | – | – | –
GTTATGAAATTATTGG (sugars kkddddkekekddddd, PS) | – | – | 83% | – | – | –
TTCTCATGGTACAGGA (sugars kkddddkekekkdddd, PS) | – | – | 20% | – | – | –
TTTTGTAAGTGCAACC (sugars k4 d9 k3, PS) | – | 95% | – | – | 47% | 84%
GTTCTAACTCTTGGGC (sugars kddddkekekeddddd, PS) | – | – | 77% | – | – | –
CACATCATTGGGTTAT (sugars k3 d4 k3 e1 d5, PS) | – | – | 78% | – | – | –
CAGTTTTGTAAGTGCA (sugars kdddddkekekddddd, PS) | – | 91% | 92% | 0% | 52% | 79%
TAAGTATTGCCAGCTA (sugars kkkddddkekeddddd, PS) | – | – | 78% | – | – | –
TTGGGTCAAAAGCGAT (sugars k4 d9 k3, PS) | – | 93% | – | – | 56% | 86%
GCTAATTTTCTGACTG (sugars k3 d4 k3 e1 d5, PS) | – | 87% | 92% | 2% | 46% | 76%
